Data as given in patent US20200384124A1, “VECTOR FOR PHARMACOLOGICALLY ACTIVE MATER-INSOLUBLE MOLECULES, AND PROCESS OF PREPARING SAME” (priority 2017, published 2020).

What was measured:
U-87 MG cells = assay: MTT cytotoxicity test of PTX and NPC2-PTX (2D); type: cell-based, human
Experimental: The volume of seeding and treatment is maintained at 150 μL per well and each condition is carried out with a conventional incubation at 37° C. […] This test uses as reagent 3-(4,5-Dimethylthiazol-2-yl)-2,5-Diphenyltetrazolium Bromide (MTT), which is converted into formazan (crystal violet) by living cells. The latter absorbent at the wavelength of 600 nm is detectable by an absorbance measurement.
(§1) As soon as the formazan crystals are visible in the cells under a light field microscope, the medium is replaced by 150 μl of dimethylsulfoxide (DMSO). The cells are then lysed, the formazan crystals dissolved, and the absorbance is measured with a Multiskan spectrophotometer (Ascent, Labtec Systems with a filter at 600 nm.
(§2) The percentage of viability is obtained by comparing the absorbance value of the treated cells with the absorbance value of the untreated control cells, which is considered as a reference and equivalent to 100% of viability. The standard deviation is calculated from 3 independent experiments.

HMEC-1 cells = assay: MTT cytotoxicity test of PTX and NPC2-PTX (2D); type: cell-based; conditions: Homo sapiens, HMEC-1, 72 h
Experimental: (§3) The volume of seeding and treatment is maintained at 150 μL per well and each condition is carried out with a conventional incubation at 37° C. A cell viability test is carried out by an MTT test after 72 h of treatment. This test uses as reagent 3-(4,5-Dimethylthiazol-2-yl)-2,5-Diphenyltetrazolium Bromide (MTT), which is converted into formazan (crystal violet) by living cells. The latter absorbent at the wavelength of 600 nm is detectable by an absorbance measurement.
as §1, §2

SK-N-SH cells = assay: MTT cytotoxicity test of PTX and NPC2-PTX (2D); type: cell-based; conditions: Homo sapiens, 72 h
Experimental: as §3, §1, §2

[1] = system: microtubular network in U-87-MG and HMEC-1 cells; assay: Indirect immunofluorescence of tubulin, comparison with PTX (Example 24); type: cell-based, human; conditions: 10, 50 and 100 nM, 6 h of treatment
Experimental: The U-87-MG and HMEC-1 cells are seeded on Lab-Tek® culture chambers (Nunc). […] After 6 h of treatment, the medium is replaced by a solution of ice-cold methanol making it possible to fix and permeabilize the cells. […] The labeling of the nucleus is carried out with a solution of DAPI or 4,6-diamidino-2-phenylindole (0.25 μg/ml; Sigma) for 2 min. The blade is finally mounted with Prolong® (Invitrogen) antifading. The observation is carried out with an epifluorescence microscope (Leica DM-IRBE) coupled with a digital camera (Princeton Instruments; CCD camera coolsnap FX).

U-87 MG spheroids [2] = assay: 3D culture spheroid size by optical microscopy; type: cell-based, human
Experimental: Spheroids (cells in 3D culture) help to better represent the tumor environment. They are composed of necrotic cells in their center and proliferating cells in the periphery. […] The cells are maintained at 37° C. and 5% of CO2 and 10 μl of fresh medium are added every two days to all the wells (controls and treated). […] Before treatment and then every two days, the spheroids are observed under an optical microscope coupled to a camera (Nikon ECLIPSE TS100), at magnification*4.;

U-87 MG spheroids [3] = assay: 3D culture spheroid viability by Alamar Blue test; type: cell-based, human; conditions: 2.8 times the IC50, Alamar Blue
Experimental: Spheroids (cells in 3D culture) help to better represent the tumor environment. They are composed of necrotic cells in their center and proliferating cells in the periphery. […] The cells are maintained at 37° C. and 5% of CO2 and 10 μl of fresh medium are added every two days to all the wells (controls and treated). […] This measurement is done in one step and uses a reagent based on resazurin, which is reduced by living cells. The reduced compound (=resofurin) is detectable by fluorescence (λex=584 nm and λem=620 nm) and the signal measured is proportional to the number of living cells. Once the above treatment has been set up, 10 μL of Alamar Blue are added to each well 7 days or 14 days after treatment and the cells are incubated 12 h before the fluorescence measurement. The data are obtained by reading the fluorescence with POLARstar Omega (BMG LABETCH) after excitation at 584 nm and reading the emission at 620 nm.

With `CC(=O)O[C@H]1C(=O)[C@@]2(C)[C@H]([C@H](OC(=O)c3ccccc3)[C@]3(O)C[C@H](OC(=O)[C@H](O)[C@@H](NC(=O)c4ccccc4)c4ccccc4)C(C)=C1C3(C)C)[C@]1(OC(C)=O)CO[C@@H]1C[C@@H]2O` [PTX, paclitaxel] the “inhibition of cell viability in 2D” value (U-87 MG cells; 2.8 times the IC50) was 70%, the IC50 (U-87 MG cells; Homo sapiens, U-87 MG, 72 h) was 9.2 ± 1.2 nM and the IC50 (HMEC-1 cells) was 5.7 ± 2 nM. The IC50 (SK-N-SH cells) was 40.5 ± 7.8 nM, the “effects on microtubular network and cell shape” value [1] was “the microtubular network is disturbed” and the “diameter of the spheroid at day 14” value (U-87 MG spheroids [2]; 2.8 times IC50 (PTX 25 nM, NPC2-PTX 70 nM)) was 757+/−22 μm. For the same compound, the “diameter of the spheroid at day 14” value (U-87 MG spheroids [2]; 4 times the IC50 (PTX 40 nM, NPC2-PTX 100 nM)) was 389+/−33 μm, the “diameter of the spheroid at day 14” value (U-87 MG spheroids [2]; IC50 calculated in 2D (PTX 9 nM, NPC2-PTX 25 nM)) was 800+/−11 μm and the “decrease / inhibition of cell viability in 3D” value (U-87 MG spheroids [3]) was 10%.
